Laboratory results reported in ChEMBL document CHEMBL5726119, “Macrocyclic compounds as IRAK4 inhibitors for the treatment of inflammatory diseases” (2017).

target: T1, Interleukin-1 receptor-associated kinase 4 (Homo sapiens, UniProt Q9NWZ3); test: Biochemical Assay: The biochemical assay is in a AlphaScreen format. The kinase reaction is based on the IRAK-4 phosphorylation of a biotin labeled peptide. The phosphopeptide is incubated with anti-phosphothreonine antibody as well as streptavidin- and protein A-coated beads. Binding of the protein-A coated beads to the antibody and the streptavidin beads to the peptide, leads to an energy transfer from one bead to the other, ultimately producing a luminescent/fluorescent signal.Generally, the kinase reaction is carried out at 1 nM IRAK4, 1.6 μM peptide, 10 μM ATP in reaction buffer 50 mM Hepes, 60 mM NaCl, 5 mM MgCl2, 0.25 mM MnCl2, 2 mM DTT, 0.01% BSA, 0.01% Tween-20) for 3.5 h at RT.
T1 sequence (Q9NWZ3 whole entry): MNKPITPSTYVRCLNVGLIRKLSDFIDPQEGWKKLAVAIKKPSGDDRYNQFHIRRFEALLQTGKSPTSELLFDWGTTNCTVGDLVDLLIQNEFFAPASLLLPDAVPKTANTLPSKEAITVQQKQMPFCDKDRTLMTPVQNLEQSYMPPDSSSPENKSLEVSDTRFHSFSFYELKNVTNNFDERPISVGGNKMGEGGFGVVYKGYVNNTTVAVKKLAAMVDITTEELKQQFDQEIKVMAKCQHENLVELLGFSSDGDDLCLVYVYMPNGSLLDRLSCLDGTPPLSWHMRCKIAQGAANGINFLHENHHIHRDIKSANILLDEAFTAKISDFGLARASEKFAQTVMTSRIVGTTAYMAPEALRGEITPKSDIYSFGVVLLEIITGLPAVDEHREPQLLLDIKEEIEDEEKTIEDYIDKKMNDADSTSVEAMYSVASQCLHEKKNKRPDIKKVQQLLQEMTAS

| IC50 | SMILES |
| --- | --- |
| > 10 µM | O=C1NCCCOC2CCCC(CNc3cc(ccn3)-c3nc1cs3)C2 (stereo not given) |
| < 10 µM | CC(C)C1NC(=O)c2nn(C3CCOCC3)cc2NC(=O)c2csc(n2)-c2ccnc(c2)CCCNC1=O (stereo not given) |
| < 0.1 µM | Cn1cc2c(n1)C(=O)NCCOCCOc1cc(ccn1)-c1cc(cs1)C(=O)N2 |
| < 1 µM | Cn1cc2c(n1)C(=O)NCCOCCOc1cc(ccn1)-c1cc(ccn1)C(=O)N2 |
| < 10 µM | Cn1cc2c(n1)C(=O)NCCOCCOc1cc(ccn1)-c1cncc(c1)C(=O)N2 |
